Earlier results, collected in patent publication US6465194B2, “Monoclonal antibodies to 4,4′-dinitrocarbanilide and a method for analyzing for the drug nicarbazin” (The United States of America as represented by the …, priority 1999, dated 2002).

Legend:
[1] = chickens; Porter and Gilfilan, 1955
[2] = tested on: Eimeria tenella; conditions: Cuckler et al., 1955

For `O=C(Nc1ccc([N+](=O)[O-])cc1)Nc1ccc([N+](=O)[O-])cc1` [DNC, 4,4′-dinitrocarbanilide], the excretion rate [1] is listed as “more slowly than HDP”.

For `Cc1cc(C)nc(O)n1.O=C(Nc1ccc([N+](=O)[O-])cc1)Nc1ccc([N+](=O)[O-])cc1` [DNC-HDP], the “potency in the control of Eimeria tenella relative to DNC by itself” value ([2]; complex versus DNC alone) is given as “ten”.

In the case of `Cc1cc(C)nc(O)n1` [HDP, 2-hydroxy-4,6-dimethylpyrimidine], the anticoccidial activity ([2]; used alone) is given as “no anticoccidial activity”.
